Source: US20030187037A1, “Acetamide derivatives and the use thereof as inhibitors of coagulation factors xa and viia” (priority 2000, published 2003)

How the values were obtained:
factor Xa, human = factor Xa, human (Homo sapiens, UniProt P00742); experiment: Inhibition of factor Xa (IC50, headed 'Affinity to Receptors'); format: biochemical
From the text: The inhibition of factor Xa by the compounds according to the invention and the measurement of the anticoagulant and antithrombotic activity can be determined by conventional in-vitro or in-vivo methods. A suitable method is described, for example, by J. Hauptmann et al. in Thrombosis and Haemostasis 1990, 63, 220-223.
The inhibition of factor Xa can be measured, for example, by the method of T. Hara et al. in Thromb. Haemostas. 1994, 71, 314-319.

TF/VIIa = TF/VIIa (Homo sapiens, UniProt P08709); experiment: Inhibition of TF/VIIa (IC50, headed 'Affinity to Receptors'); format: biochemical
TF/VIIa, sequence (P08709 213-466 limits assumed): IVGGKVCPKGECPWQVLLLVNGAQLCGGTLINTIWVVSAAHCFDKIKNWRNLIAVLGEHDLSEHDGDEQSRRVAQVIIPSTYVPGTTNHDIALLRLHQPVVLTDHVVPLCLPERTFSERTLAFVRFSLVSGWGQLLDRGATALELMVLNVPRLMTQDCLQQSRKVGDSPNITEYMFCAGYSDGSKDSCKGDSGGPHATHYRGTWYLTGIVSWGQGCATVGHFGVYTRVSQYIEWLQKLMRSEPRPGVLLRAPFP
TF/VIIa, sequence (P08709 61-212 partner limits assumed): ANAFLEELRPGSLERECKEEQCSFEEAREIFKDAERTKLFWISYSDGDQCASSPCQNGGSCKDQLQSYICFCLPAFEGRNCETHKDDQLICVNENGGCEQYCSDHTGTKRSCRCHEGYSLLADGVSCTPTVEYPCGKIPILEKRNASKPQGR
TF/VIIa, sequence (P13726 33-295 partner): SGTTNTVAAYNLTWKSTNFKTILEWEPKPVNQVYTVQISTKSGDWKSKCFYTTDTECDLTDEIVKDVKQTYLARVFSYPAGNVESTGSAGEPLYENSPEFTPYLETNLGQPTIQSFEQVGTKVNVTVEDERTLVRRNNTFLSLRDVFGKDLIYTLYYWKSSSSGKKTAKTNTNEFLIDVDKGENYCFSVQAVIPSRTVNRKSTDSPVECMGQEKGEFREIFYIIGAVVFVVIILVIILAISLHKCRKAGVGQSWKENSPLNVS
From the text: The inhibition of factor VIIa by the compounds according to the invention and the measurement of the anticoagulant and antithrombotic activity can be determined by conventional in-vitro or in-vivo methods. A conventional method for the measurement of the inhibition of factor VIIa is described, for example, by H. F. Ronning et al. in Thrombosis Research 1996, 84, 73-81.

factor Xa, human, sequence (P00742 235-488 limits assumed): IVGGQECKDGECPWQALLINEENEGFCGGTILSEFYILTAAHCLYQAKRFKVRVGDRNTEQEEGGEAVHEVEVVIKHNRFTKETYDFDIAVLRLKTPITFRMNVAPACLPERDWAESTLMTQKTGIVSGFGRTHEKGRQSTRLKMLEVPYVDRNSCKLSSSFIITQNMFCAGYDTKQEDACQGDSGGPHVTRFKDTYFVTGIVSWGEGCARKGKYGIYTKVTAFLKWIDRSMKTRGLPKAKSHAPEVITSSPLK
factor Xa, human, sequence (P00742 41-179 partner limits assumed): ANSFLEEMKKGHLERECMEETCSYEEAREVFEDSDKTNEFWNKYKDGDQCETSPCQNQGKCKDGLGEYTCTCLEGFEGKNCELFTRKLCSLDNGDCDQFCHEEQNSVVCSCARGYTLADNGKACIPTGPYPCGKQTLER

| IC50 (factor Xa, human) [nM] | IC50 (TF/VIIa) [nM] | SMILES |
| --- | --- | --- |
| 2000 | 900 | CCCN(Cc1cccc(C(=N)N)c1)C(=O)Cc1ccc(-c2ccccc2S(N)(=O)=O)cc1 [Example 3.3, N-3-amidinobenzyl-N-propyl-2-(2′-sulfamoylbiphenyl-4-yl)acetamide] |
| 1000 | 700 | CCCN(Cc1cccc(C(=N)N)c1)C(=O)Cc1ccc(-c2ccccc2S(C)(=O)=O)cc1 [Example 4.3, N-(3-amidinobenzyl)-N-propyl-2-(2′-methylsulfonylbiphenyl-4-yl)acetamide] |
| 550 | 650 | CS(=O)(=O)c1ccccc1-c1ccc(CC(=O)N(Cc2cccc(C(=N)N)c2)c2ccccc2)cc1 [N-(3-amidinobenzyl)-N-phenyl-2-(2′-methylsulfonylbiphenyl-4-yl)acetamide] |
| 2000 | 1500 | N=C(N)c1cccc(CN(C(=O)Cc2ccc(-c3ccccc3S(N)(=O)=O)cc2)c2ccccc2)c1 [N-(3-amidinobenzyl)-N-phenyl-2-(2′-sulfamoylbiphenyl-4-yl)acetamide] |
